Test results from patent US9549930B2, “Combined systemic and topical treatment of disordered and/or prodromal stage tissue” (priority 2013, dated 2017).

Experiments:
[1] = tested on: Herpes Zoster (HZV); test: Case histories: systemic anti-viral drug alone for shingles; assay type: in vivo, human
Description: A person with a clinical history of recurrent Herpes Zoster (HZV) (or in layman's terms, shingles) experienced a recurrent outbreak after a stressful week at work and a weekend in the sun following a trip to a tanning booth. (It is known that stress and UV-B can both trigger herpetic outbreaks.) This subject had their first episode with HZV about one year prior. They were diagnosed by their physician and given a prescription for Zovirax (acyclovir). They took the Zovirax, but experienced lesions lasting 3-4 weeks and experienced over 12 weeks of post-herpetic neuralgia. The previous episode included all the classic stages, including weeping, but only involved several very small lesions.
A person was vacationing in California when they developed a red rash and subsequent lesions on their right buttock. They were diagnosed with herpes zoster (shingles) on day 2, after first signs and symptoms were noted, and was prescribed valacyclovir (Valtrex) per label.
As […] to get to their home from California, they and their spouse elected to extend their time in California.
The patient initially went to the doctor in the early stages of the infection when it was only on their leg. The doctor diagnosed the condition as shingles and prescribed the patient Valtrex. […] The bumps were smaller but they kept spreading. The doctor advised them to keep taking the Valtrex. Once the patient finished the first prescription of Valtrex, the doctor provided a second Valtrex prescription. […] The sores remained the same size although the sores on the patient's leg were much larger than on their lower trunk.
A person had shingles on their neck and shoulders. Their sibling is a physician and diagnosed shingles and prescribed a nucleoside drug according to FDA approved labeling. The lesions had started to propagate down the affected dermatomes of the shoulder and neck. The lesions continued to progress despite anti-viral therapy.

[2] = cited from earlier work
[3] = cited from earlier work; remark: listed apart in the source
[4] = Example 4, person, first HZV episode, Zovirax alone

| Compound | state on day 18 after first signs, after completed regimen ([1]; Example 6, Valtrex regimen as prescribed) | effect on shingles initially ([1]; Example 6, person, Valtrex per label from day 2) | state of sores after first prescription finished ([1]; Example 8, Valtrex alone) | course of lesions shortly after first doses ([1]; Example 8, person, Valtrex alone) | bioavailability ([2]; oral administration, shown in U.S. Pat. No. 4,957,924) | duration of post-herpetic neuralgia [1, 4] | lesions lasting [1, 4] | solubility in water [3] | absorption from the gastrointestinal tract ([2]; after oral administration) |
| --- | --- | --- | --- | --- | --- | --- | --- | --- | --- |
| CC(C)[C@H](N)C(=O)OCCOCn1cnc2c(=O)[nH]c(N)nc21 [Valtrex] | still had open herpetic lesions | little noticeable effect initially | still open and large | the lesions spread up the patient's leg and to their lower trunk | improved bioavailability | – | – | – | – |
| Nc1nc2c(ncn2COCCO)c(=O)[nH]1 [Aciclovir, 9-(2-hydroxyethoxymethyl)guanine] | – | – | – | – | – | over 12 weeks | 3-4 weeks | poorly soluble in water | poorly absorbed |
